In ChEMBL document CHEMBL6096680, “Development of PRC1 Inhibitors Employing Fragment-Based Approach and NMR-Guided Optimization” (J Med Chem, 2025):
pIC50, pKd: −log10 of the molar value.

How the values were obtained:
[1] = Binding affinity to RING1B (10 to 116 residues)/BMI1 (1 to 104 residues) (unknown origin) extracted from Escherichia coli BL21 (DE3) cells assessed as chemical shift perturbation for amide of Gly83 residue by measuring estimated dissociation constant by 1H-15N HSQC spectra based NMR titration analysis; design: species or system Homo sapiens
Homo sapiens [2] = species on record: Homo sapiens; test: Binding affinity to 15N-labeled RING1B (10 to 116 residues)/BMI1 (1 to 104 residues) (unknown origin) extracted from Escherichia coli BL21 (DE3) cells assessed as ratio of chemical shift perturbations at 1:2 compound concentration ration by NMR binding analysis
Homo sapiens [3] = species on record: Homo sapiens; test: Binding affinity to 15N-labeled RING1B (10 to 116 residues)/BMI1 (1 to 104 residues) (unknown origin) extracted from Escherichia coli BL21 (DE3) cells assessed as sum of A79, G83 and T89 chemical shift perturbations at 200 uM by NMR binding analysis
Homo sapiens [4] = species on record: Homo sapiens; test: Binding affinity to 15N-labeled RING1B (10 to 116 residues)/BMI1 (1 to 104 residues) (unknown origin) extracted from Escherichia coli BL21 (DE3) cells assessed as sum of A79, G83 and T89 chemical shift perturbations at 100 uM by NMR binding analysis
[5] = Inhibition of 6His-tagged RING1B (10 to 116 residues)/BMI1 (1 to 104 residues) (unknown origin) extracted from Escherichia coli BL21 (DE3) cells preincubated with compound for 1 hrs followed by 3-(1-(4,26-dioxo-30-((3aS,4S,6aR)-2-oxohexahydro-1H-thieno[3,4-d]imidazol-4-yl)-7,10,13,16,19,22-hexaoxa-3,25-diazatriacontyl)-6-methoxy-1H-indol-4-yl)-5-(6-fluoro-1H-indol-4-yl)-4-isopropyl-1H-pyrrole-2-carboxylic acid addition and measured after 1 hrs by Alphascreen competition assay; design: species or system Homo sapiens
[6] = Binding affinity to 15N-labeled RING1B (10 to 116 residues)/BMI1 (1 to 104 residues) (unknown origin) extracted from Escherichia coli BL21 (DE3) cells assessed as dissociation constant by NMR-based fragment screening analysis; design: species or system Homo sapiens

Compound	Ratio (Homo sapiens [2])	Activity (Homo sapiens [3]) [Hz]	Activity (Homo sapiens [4]) [Hz]	pIC50 [5]	further results
CCc1c(-c2cccc3[nH]ccc23)[nH]c(C(=O)O)c1-c1ccccc1					pKd [1]: 4.52
CCc1c(-c2cccc3[nH]ccc23)[nH]c(C(=O)O)c1-c1ccccc1Cl					pKd [6]: 4.94
CCC(C)c1c(-c2cccc3[nH]ccc23)[nH]c(C(=O)O)c1-c1cccc2[nH]ccc12 (stereo not given)	0.92	291	268	5.25	
Cc1ccc2[nH]ccc2c1-c1[nH]c(C(=O)O)c(-c2c(Cl)ccc3[nH]ccc23)c1C(C)C				5.29	
O=C(O)c1ccc(-c2cccc3[nH]ccc23)[nH]1					pKd [1]: 2.66
O=C(O)c1[nH]c(-c2cccc3[nH]ccc23)c(C2CC2)c1-c1cccc2[nH]ccc12	0.65	211	138	4.80	
O=C(O)c1ccc(-c2ccccc2)[nH]1					pKd [6]: 2.44
CCc1c(-c2cccc3[nH]ccc23)[nH]c(C(=O)O)c1C1CCCCC1					pKd [1]: 3.77
Cc1cc(C(=O)O)[nH]c1-c1cccc2[nH]ccc12					pKd [6]: 2.85
CC(C)c1c(-c2cc(F)cc3[nH]ccc23)[nH]c(C(=O)O)c1-c1cc(Cl)cc2[nH]ccc12	0.92	305	280	5.55	
CC(C)c1c(-c2ccc3cc[nH]c3c2)[nH]c(C(=O)O)c1-c1c(Cl)ccc2[nH]ccc12				4.96	
CC(C)c1c(-c2cccc3[nH]c(C(=O)O)cc23)[nH]c(C(=O)O)c1-c1c(Cl)ccc2[nH]ccc12				5.66	
CC(C)c1c(-c2cc(F)cc3[nH]ccc23)[nH]c(C(=O)O)c1-c1cc(F)cc2[nH]ccc12	0.97	330	320	5.37	
O=C(O)c1ccc(-c2ccccc2)s1					pKd [6]: 2.15
Cc1cc(-c2cccc3[nH]ccc23)[nH]c1C(=O)O					pKd [1]: 2.96
CCc1c(C(=O)O)[nH]c(-c2cccc3[nH]ccc23)c1CC					pKd [1]: 3.60

More lines, main results first:

Ratio (Homo sapiens [2])	Activity (Homo sapiens [3]) [Hz]	Activity (Homo sapiens [4]) [Hz]	pIC50 [5]	Compound	further results
0.92	338	318	5.60	COc1cc(-c2c(C(=O)O)[nH]c(-c3cc(F)cc4[nH]ccc34)c2C(C)C)c2cc[nH]c2c1	
			5.54	CC(C)c1c(-c2cccc3[nH]ccc23)[nH]c(C(=O)O)c1-c1c(Cl)ccc2[nH]ccc12	
0.93	319	298	5.26	CC(C)c1c(-c2cc(F)cc3[nH]ccc23)[nH]c(C(=O)O)c1-c1cc(C(F)(F)F)cc2[nH]ccc12	
			5.28	CC(C)c1c(-c2cc(Cl)cc3[nH]ccc23)[nH]c(C(=O)O)c1-c1c(Cl)ccc2[nH]ccc12	
0.78	277	216	5.10	CC(CF)c1c(-c2cccc3[nH]ccc23)[nH]c(C(=O)O)c1-c1cccc2[nH]ccc12 (stereo not given)	
			5.36	CC(C)c1c(-c2cc(F)cc3cc[nH]c23)[nH]c(C(=O)O)c1-c1c(Cl)ccc2[nH]ccc12	
			5.70	CC(C)c1c(-c2cccc3[nH]c(CO)cc23)[nH]c(C(=O)O)c1-c1c(Cl)ccc2[nH]ccc12	
			5.30	COc1cc(-c2[nH]c(C(=O)O)c(-c3c(Cl)ccc4[nH]ccc34)c2C(C)C)c2cc[nH]c2c1	
			5.20	CCc1cc(-c2[nH]c(C(=O)O)c(-c3c(Cl)ccc4[nH]ccc34)c2C(C)C)c2cc[nH]c2c1	
			5.40	CC(C)c1c(-c2ccc3[nH]ccc3c2)[nH]c(C(=O)O)c1-c1c(Cl)ccc2[nH]ccc12	
0.62	172	107	4.42	CC(CO)c1c(-c2cccc3[nH]ccc23)[nH]c(C(=O)O)c1-c1cccc2[nH]ccc12 (stereo not given)	
0.95	331	313	5.64	CCOc1cc(-c2c(C(=O)O)[nH]c(-c3cc(F)cc4[nH]ccc34)c2C(C)C)c2cc[nH]c2c1	
